Experimental data from patent publication US11028127B2, “Peptides capable of reactivating p53 mutants” (Yeda Research and Development Co. Ltd., priority 2013, dated 2021).
Where no end group is shown, it is not given here. The star is where a group is joined. Myristoyl = CCCCCCCCCCCCCC(=O)*

System: Mut-p53
Test: Total activity score over combined assays (Table 8)
Parameters: scale not given here
Conditions: for Activity Score: Table 10 summary of activity of the peptides tested; for PCR, activity score / Conformation, activity score: Table 8; for PCR, activity score: head span not shown; for Conformation, activity score: the 14 score columns c4-c17 stand under the heads Conformation, DNA binding, Viability, PCR
Description: Several alternative and complementary methods to screen lead peptide candidates for conformational and functional effects on Mut-p53 were employed. For increased penetration of peptide across cell membranes each peptide contains 3-6 Arginine residues either as part of its sequence or added either at its N-terminus or its C-terminus. […] In-vitro based assays for evaluation were first performed, such as ELISA for assessment of p53 conformation and sequence-specific DNA binding of p53.

Row | Substance | Activity Score | PCR, activity score | Conformation, activity score
1 | pCAP241 (LIGLSTSPRPRIIR) | 0 | – | –
2 | pCAP242 (Myristoyl-RRLIVRILKLPNPPER) | 67 | 6 | 4
3 | pCAP243 (RRCRSILPLLLLSR) | 2 | – | –
4 | pCAP244 (RRVSELQRNKHGRKHEL) | 5 | – | –
5 | pCAP245 (NHITNGGEEDSDCSSRRRRL) | 8 | – | –
6 | pCAP246 (RRRLDDEDVQTPTPSEYQN) | 5 | – | –
7 | pCAP247 (RRITEIRGRTGKTTLTYIED) | 6 | – | –
8 | pCAP248 (EIYGESGKTDEHALDTEYRR) | 0 | – | –
9 | pCAP249 (Myristoyl-DERTGKTRRYIDTRDIRR) | 6 | – | –
10 | pCAP251 (RLRRVILRSYHE) | 3 | – | –
11 | pCAP252 (RRVILRSYDGGHSTPHPD) | 0 | – | –
12 | pCAP253 (TGKTFVKRHLTEFEKKYR) | 0 | – | –
13 | pCAP254 (NHFDYDTIELDTAGEYSRRR) | 0 | – | –
14 | pCAP255 (DPEPPRYLPPPPERR) | 0 | – | –
15 | pCAP256 (RTLHGRRVILHEGGHSISDLK) | 2 | – | –
16 | pCAP257 (Myristoyl-HSSHHHPTVQHRR) | 8 | – | –
17 | pCAP258 (FLIGPDRLIRSR) | 23 | 4 | –
18 | pCAP259 (Myristoyl-RTLIGIIRSHHLTLIRR) | 25 | 2 | –
19 | pCAP260 (RRTFIRHRIDSTEVIYQDED) | 0 | 6 | 4
20 | pCAP261 (RRRQPLPSAPENEE) | 5 | – | –
21 | pCAP262 (ESKTGHKSEEQRLRRYR) | 0 | – | –
22 | pCAP263 (YDDEHNHHPHHSTHRRR) | 0 | – | –
23 | pCAP264 (RRRREVHTIHQHGIVHSD) | 0 | – | –
24 | pCAP265 (EEPDRQPSGKRGGRKRRSR) | 3 | – | –
25 | pCAP266 (HHRLSYFIVRRHSTHASR) | 2 | – | –
26 | pCAP267 (KRGGRKRRGGGHRLSYFIRR) | 28 | 2 | 3
27 | pCAP268 (TPSYGHTPSHHRRR) | 12 | – | 3

Row | Substance | Activity Score | PCR, activity score | Conformation, activity score
28 | pCAP269 (DEPLPPPERRR) | 0 | – | –
29 | pCAP270 (SPHPPY) | 0 | – | –
30 | pCAP271 (SPHPPYSPHPPYSPHPPYP) | 0 | – | –
31 | pCAP272 (RRPHNLHHD) | 0 | – | –
32 | pCAP273 (RDFHTIHPSISRR) | 3 | – | –
33 | pCAP274 (LRDPHPPERRIR) | 0 | – | –
34 | pCAP275 (Myristoyl-MTYSDMPRRIITDEDRRR) | 6 | – | –
35 | pCAP276 (RRVDIHDGQRR) | 3 | – | –
36 | pCAP277 (DQPYPHRRIR) | 3 | – | –
37 | pCAP278 (RRYDTVIDDIEYRR) | 6 | – | –
38 | pCAP279 (RDTIERPEIRR) | 6 | – | –
39 | pCAP280 (Myristoyl-RYRRLILEIWRR) | 6 | – | –
40 | pCAP281 (Myristoyl-RDFILFIRRLGRR) | 3 | – | –
41 | pCAP282 (Myristoyl-RRPVAPDLRHTIHIPPER) | 43 | 3 | 4
42 | pCAP283 (RRPADQISYLHPPER) | 0 | – | –
43 | pCAP284 (Myristoyl-RHDTHNAHIRR) | 6 | – | –
44 | pCAP285 (RRDIIRHNAHS) | 4 | – | –
45 | pCAP286 (HDFHDYLERR) | 4 | – | –
46 | pCAP287 (RDFERTIVDI) | 8 | – | –
47 | pCAP288 (THDFDRLLRIRRR) | 6 | – | –
48 | pCAP289 (RHNHIRPDNQ) | 6 | – | –
49 | pCAP290 (RYKEPRITPRE) | 6 | – | –
50 | pCAP291 (DLQYDFPRIRR) | 0 | – | –
51 | pCAP292 (YDELYQKEDPHRRR) | 0 | – | –
52 | pCAP293 (RRIRIDPQHD) | 2 | – | –
53 | pCAP294 (FKPERFPQNDRRR) | 0 | – | –
54 | pCAP295 (LDLYHPRERR) | 3 | – | –
